From article PMC9270327 (Communications Biology, 2022)
Counter-ions that a name gives are not always drawn.

How the values were obtained:
TMPRSS2 [1] = molecular target: T1, TMPRSS2 (Homo sapiens, UniProt O15393); assay: Plasma stability: residual TMPRSS2 inhibition after incubation in human plasma
Description: (§1) The activity of the compounds against the recombinant human enzymes was determined in enzyme inhibition assays. […] The measurements were performed on a Tecan infinite® M1000 and the fluorescence intensity was measured by exciting the AMC fluorophore at 380 nm wavelength and recording emission at 460 nm wavelength. […] Fluorescence intensities and absorption were measured every 2 min for 2 h or as endpoint after 2 h. […] To determine the IC50 values, the concentration-response data were plotted with the program GraphPad prism version 8.4.2 (San Diego, California) and a nonlinear regression fit with the equation [Inhibitor] vs. normalized response was applied. The inhibitory constant Ki was calculated from the IC50 values using the Cheng–Prusoff equation (Ki = IC50/[S]/KM) for competitive reversible inhibitors[66].
(§2) The stability of the inhibitors was measured according to a modified procedure from ref. [67]. […] At indicated timepoints, 100 µL samples were taken and mixed with 200 µL of ethanol to precipitate proteins. […] The supernatant was aspirated and analyzed using analytical HPLC. The residual inhibitory constants Ki after incubation was assessed by mixing serial dilutions of the inhibitor with recombinant TMPRSS2 as described above.
(§3) Shown are the means ± SD of n=1 experiment performed in triplicates.

TMPRSS2 [2] = molecular target: T1, TMPRSS2; assay: Cell culture medium stability: residual TMPRSS2 inhibition after incubation in medium
Description: as §1, §2
were mixed with recombinant TMPRSS2, followed by the addition of the fluorogenic reference
as §3

[3] = inhibitor 16.65 nM, positive ctrl
[4] = inhibitor 166.5 nM, positive ctrl
[5] = inhibitor 1665 nM, positive ctrl

T1 sequence (O15393 whole entry): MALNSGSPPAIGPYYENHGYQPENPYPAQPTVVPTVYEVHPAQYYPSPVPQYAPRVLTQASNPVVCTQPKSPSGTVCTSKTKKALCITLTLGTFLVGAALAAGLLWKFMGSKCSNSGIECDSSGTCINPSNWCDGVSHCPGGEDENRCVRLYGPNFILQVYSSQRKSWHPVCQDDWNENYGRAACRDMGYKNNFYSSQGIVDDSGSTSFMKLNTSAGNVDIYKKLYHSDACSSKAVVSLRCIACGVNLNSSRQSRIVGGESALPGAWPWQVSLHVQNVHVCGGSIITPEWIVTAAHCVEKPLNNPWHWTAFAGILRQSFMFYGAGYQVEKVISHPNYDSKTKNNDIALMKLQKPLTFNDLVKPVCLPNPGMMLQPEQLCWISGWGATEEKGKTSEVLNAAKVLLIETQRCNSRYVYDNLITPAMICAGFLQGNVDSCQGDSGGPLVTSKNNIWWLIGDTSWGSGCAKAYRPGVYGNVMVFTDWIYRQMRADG

CN(C)C(=O)COC(=O)Cc1ccc(OC(=O)c2ccc(NC(=N)N)cc2)cc1 [CM, camostat mesylate, reference compound]
TMPRSS2 activity, Mean (0 nM = 100) (TMPRSS2 [1]; inhibitor 16.65 nM, 24 h in plasma): 100.72
TMPRSS2 activity, Mean (0 nM = 100) (TMPRSS2 [1]; inhibitor 16.65 nM, 10 d in plasma): 95.3646
TMPRSS2 activity, Mean (0 nM = 100) (TMPRSS2 [1]; [3]): 5.9227
TMPRSS2 activity, Mean (0 nM = 100) (TMPRSS2 [1]; inhibitor 166.5 nM, 0 min in plasma): 5.478
TMPRSS2 activity, Mean (0 nM = 100) (TMPRSS2 [1]; inhibitor 166.5 nM, 30 min in plasma): 3.6809
TMPRSS2 activity, Mean (0 nM = 100) (TMPRSS2 [1]; inhibitor 166.5 nM, 60 min in plasma): 3.225
TMPRSS2 activity, Mean (0 nM = 100) (TMPRSS2 [1]; inhibitor 166.5 nM, 120 min in plasma): 7.418
TMPRSS2 activity, Mean (0 nM = 100) (TMPRSS2 [1]; inhibitor 166.5 nM, 24 h in plasma): 28.8196
TMPRSS2 activity, Mean (0 nM = 100) (TMPRSS2 [1]; inhibitor 166.5 nM, 10 d in plasma): 97.9296
TMPRSS2 activity, Mean (0 nM = 100) (TMPRSS2 [1]; [4]): 2.192
TMPRSS2 activity, Mean (0 nM = 100) (TMPRSS2 [1]; inhibitor 1665 nM, 0 min in plasma): 4.824
TMPRSS2 activity, Mean (0 nM = 100) (TMPRSS2 [1]; inhibitor 1665 nM, 30 min in plasma): 0.6431
TMPRSS2 activity, Mean (0 nM = 100) (TMPRSS2 [1]; inhibitor 1665 nM, 60 min in plasma): 1.811
TMPRSS2 activity, Mean (0 nM = 100) (TMPRSS2 [1]; inhibitor 1665 nM, 120 min in plasma): 6.253
TMPRSS2 activity, Mean (0 nM = 100) (TMPRSS2 [1]; inhibitor 1665 nM, 24 h in plasma): 5.605
TMPRSS2 activity, Mean (0 nM = 100) (TMPRSS2 [1]; inhibitor 1665 nM, 10 d in plasma): 88.1928
TMPRSS2 activity, Mean (0 nM = 100) (TMPRSS2 [1]; [5]): 0.4038
Residual TMPRSS2 activity, Mean (0 nM = 100) (TMPRSS2 [2]; inhibitor 0.0167 nM, 0 min in cell culture medium): 104.51
Residual TMPRSS2 activity, Mean (0 nM = 100) (TMPRSS2 [2]; inhibitor 0.0167 nM, 30 min in cell culture medium): 108.071
Residual TMPRSS2 activity, Mean (0 nM = 100) (TMPRSS2 [2]; inhibitor 0.0167 nM, 60 min in cell culture medium): 94.6283
Residual TMPRSS2 activity, Mean (0 nM = 100) (TMPRSS2 [2]; inhibitor 0.0167 nM, 120 min in cell culture medium): 101.99
Residual TMPRSS2 activity, Mean (0 nM = 100) (TMPRSS2 [2]; inhibitor 0.0167 nM, 24 h in cell culture medium): 104.987
Residual TMPRSS2 activity, Mean (0 nM = 100) (TMPRSS2 [2]; inhibitor 0.0167 nM, 10 d in cell culture medium): 98.7798
Residual TMPRSS2 activity, Mean (0 nM = 100) (TMPRSS2 [2]; inhibitor 0.0167 nM, positive ctrl): 112.676
Residual TMPRSS2 activity, Mean (0 nM = 100) (TMPRSS2 [2]; inhibitor 0.167 nM, 0 min in cell culture medium): 93.733
Residual TMPRSS2 activity, Mean (0 nM = 100) (TMPRSS2 [2]; inhibitor 0.167 nM, 30 min in cell culture medium): 95.4083
Residual TMPRSS2 activity, Mean (0 nM = 100) (TMPRSS2 [2]; inhibitor 0.167 nM, 60 min in cell culture medium): 77.5396
Residual TMPRSS2 activity, Mean (0 nM = 100) (TMPRSS2 [2]; inhibitor 0.167 nM, 120 min in cell culture medium): 90.8064
Residual TMPRSS2 activity, Mean (0 nM = 100) (TMPRSS2 [2]; inhibitor 0.167 nM, 24 h in cell culture medium): 102.761
Residual TMPRSS2 activity, Mean (0 nM = 100) (TMPRSS2 [2]; inhibitor 0.167 nM, 10 d in cell culture medium): 99.2067
Residual TMPRSS2 activity, Mean (0 nM = 100) (TMPRSS2 [2]; inhibitor 0.167 nM, positive ctrl): 96.1679
Residual TMPRSS2 activity, Mean (0 nM = 100) (TMPRSS2 [2]; inhibitor 1.665 nM, 0 min in cell culture medium): 49.6948
Residual TMPRSS2 activity, Mean (0 nM = 100) (TMPRSS2 [2]; inhibitor 1.665 nM, 30 min in cell culture medium): 47.8364
Residual TMPRSS2 activity, Mean (0 nM = 100) (TMPRSS2 [2]; inhibitor 1.665 nM, 60 min in cell culture medium): 26.9293
Residual TMPRSS2 activity, Mean (0 nM = 100) (TMPRSS2 [2]; inhibitor 1.665 nM, 120 min in cell culture medium): 28.8645
Residual TMPRSS2 activity, Mean (0 nM = 100) (TMPRSS2 [2]; inhibitor 1.665 nM, 24 h in cell culture medium): 90.2986
Residual TMPRSS2 activity, Mean (0 nM = 100) (TMPRSS2 [2]; inhibitor 1.665 nM, 10 d in cell culture medium): 96.8623
Residual TMPRSS2 activity, Mean (0 nM = 100) (TMPRSS2 [2]; inhibitor 1.665 nM, positive ctrl): 28.3437
Residual TMPRSS2 activity, Mean (0 nM = 100) (TMPRSS2 [2]; inhibitor 16.65 nM, 0 min in cell culture medium): 3.839
Residual TMPRSS2 activity, Mean (0 nM = 100) (TMPRSS2 [2]; inhibitor 16.65 nM, 30 min in cell culture medium): 20.3269
Residual TMPRSS2 activity, Mean (0 nM = 100) (TMPRSS2 [2]; inhibitor 16.65 nM, 60 min in cell culture medium): 1.937
Residual TMPRSS2 activity, Mean (0 nM = 100) (TMPRSS2 [2]; inhibitor 16.65 nM, 120 min in cell culture medium): 2.211
Residual TMPRSS2 activity, Mean (0 nM = 100) (TMPRSS2 [2]; inhibitor 16.65 nM, 24 h in cell culture medium): 42.5007
Residual TMPRSS2 activity, Mean (0 nM = 100) (TMPRSS2 [2]; inhibitor 16.65 nM, 10 d in cell culture medium): 95.3646
Residual TMPRSS2 activity, Mean (0 nM = 100) (TMPRSS2 [2]; [3]): 3.3573
Residual TMPRSS2 activity, Mean (0 nM = 100) (TMPRSS2 [2]; inhibitor 166.5 nM, 0 min in cell culture medium): -1.499
Residual TMPRSS2 activity, Mean (0 nM = 100) (TMPRSS2 [2]; inhibitor 166.5 nM, 30 min in cell culture medium): -2.333
Residual TMPRSS2 activity, Mean (0 nM = 100) (TMPRSS2 [2]; inhibitor 166.5 nM, 60 min in cell culture medium): -2.406
Residual TMPRSS2 activity, Mean (0 nM = 100) (TMPRSS2 [2]; inhibitor 166.5 nM, 120 min in cell culture medium): -2.5978
Residual TMPRSS2 activity, Mean (0 nM = 100) (TMPRSS2 [2]; inhibitor 166.5 nM, 24 h in cell culture medium): 5.263
Residual TMPRSS2 activity, Mean (0 nM = 100) (TMPRSS2 [2]; inhibitor 166.5 nM, 10 d in cell culture medium): 97.9296
Residual TMPRSS2 activity, Mean (0 nM = 100) (TMPRSS2 [2]; [4]): -2.042
Residual TMPRSS2 activity, Mean (0 nM = 100) (TMPRSS2 [2]; inhibitor 1665 nM, 0 min in cell culture medium): -4.334
Residual TMPRSS2 activity, Mean (0 nM = 100) (TMPRSS2 [2]; inhibitor 1665 nM, 30 min in cell culture medium): -4.917
Residual TMPRSS2 activity, Mean (0 nM = 100) (TMPRSS2 [2]; inhibitor 1665 nM, 60 min in cell culture medium): -4.534
Residual TMPRSS2 activity, Mean (0 nM = 100) (TMPRSS2 [2]; inhibitor 1665 nM, 120 min in cell culture medium): -4.182
Residual TMPRSS2 activity, Mean (0 nM = 100) (TMPRSS2 [2]; inhibitor 1665 nM, 24 h in cell culture medium): 0.9545
Residual TMPRSS2 activity, Mean (0 nM = 100) (TMPRSS2 [2]; inhibitor 1665 nM, 10 d in cell culture medium): 88.1928
Residual TMPRSS2 activity, Mean (0 nM = 100) (TMPRSS2 [2]; [5]): -4.2458
